Measured values from PubChem BioAssay (NCI).
Where “and” joins values, the source holds several entries; their conditions need not be identical. Equal values may be shown once.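 Assay format: 96-well plates, 48-hour exposure. TGI: total growth inhibition.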

Tests used:
Test in all cases: NCI tumour cell line growth inhibition, 48 h
[1] = test system: BT-549 breast
[2] = test system: HCC-2998 colon
[3] = test system: HCT-116 colon
[4] = test system: NCI-H23 lung
[5] = test system: NCI-H522 lung
[6] = test system: SNB-19 CNS
[7] = test system: UO-31 renal
[8] = test system: LOX IMVI melanoma
[9] = test system: OVCAR-4 ovarian

SMILES | TGI [1] [µM] | TGI [2] | TGI [3] [µM] | TGI [4] [µM] | TGI [5] | TGI [6] [µM] | TGI [7] [µM] | TGI [8] [µM] | TGI [9]
O=C(O)C1Cc2ccccc2OC1=O (stereo not drawn) | > 100 | > 100 µM | > 100 | > 100 | > 100 µM | > 100 | > 100 | – | –
CCOC(=O)/C(=C\NC#N)c1nc2ccccc2[nH]1 | > 100 | > 100 µM | > 100 | > 100 | > 100 µM | > 100 | 6.28 | > 100 | > 100 µM
C[n+]1c(-c2ccc(/C=N/Nc3n[nH]c(=S)n3N/N=C/c3ccc(-c4cn5ccccc5[n+]4C)cc3)cc2)cn2ccccc21 | – | > 100 µM | > 100 | – | > 100 µM | > 100 | > 100 | – | > 100 µM
CC(=O)O[C@H]1CC[C@H]2[C@@H]3CC[C@H]4Nc5c(cnn5S(C)(=O)=O)C[C@]4(C)[C@H]3CC[C@]12C | 80.9 | > 100 µM | > 100 | > 100 | > 100 µM | > 100 | > 100 | – | > 100 µM
CCOC(=O)C1CCCC1S(=O)(=O)c1ccc(C)cc1 (stereo not drawn) | > 100 | > 100 µM | > 100 | > 100 | > 100 µM | > 100 | > 100 | > 100 | > 100 µM
COc1ccc(C2c3c(-c4ccccc4)nn(-c4ccccc4)c3Oc3ncn(N)c(=N)c32)cc1OC (stereo not drawn) | 15 | 2.76 µM | 3.24 | 6.66 | 4.15 µM | 19.9 | 3.84 | – | 7.33 µM
Cc1ccc(-c2nc3n(c2/C=N\N=C(N)N)CCS3)cc1 | – | 24.2 µM | 28.5 | 30.4 | 18.1 µM | 28.5 | 30.5 | 31.9 | 30.3 µM
CC(=N\N=C\c1ccccn1)/C(C)=N/N=C/c1ccccn1 | > 100 | > 100 µM | > 100 | > 100 | > 100 µM | > 100 | > 100 | > 100 | > 100 µM
CN1CCN(CCCCNc2cc3c4ccccc4c(NCCCCN4CCN(C)CC4)cc3c3ccccc23)CC1 | 14.9 | 3.29 µM | 2.13 | – | 6.51 µM | 12.5 | 11.8 | 2.42 | 2.87 µM
O=C(O)C1C2CCC(C2)C1c1ccccc1 (stereo not drawn) | – | > 100 µM | > 100 | > 100 | > 100 µM | > 100 | > 100 | > 100 | –
CN(c1ccccc1Cl)S(=O)(=O)c1ccccc1 | > 100 | – | > 100 | > 100 | > 100 µM | > 100 | > 100 | > 100 | > 100 µM
CC1(C)N=C(/C(C#N)=[N+](/[O-])C(=O)c2ccccc2)C(C)(C)N1O | – | > 100 µM | > 100 | > 100 | – | > 100 | > 100 | > 100 | > 100 µM
O=C(O)c1ccc(/C=N\N(CCO)C2=NCCN2)cc1 | > 100 | > 100 µM | > 100 | > 100 | – | > 100 | > 100 | > 100 | > 100 µM
COC(=O)Nc1nc2ccc(NS(=O)(=O)c3ccc(F)cc3)cc2[nH]1 | > 100 | – | > 100 | > 100 | 7.68 µM | > 100 | > 100 | > 100 | > 100 µM
C[N+](C)(N)Cc1csc(-c2ccc(Cl)cc2)n1 | > 100 | > 100 µM | > 100 | > 100 | > 100 µM | > 100 | > 100 | > 100 | > 100 µM
O=C(O)C1(CC(CCCN2CCCCC2)c2ccccc2)CCCC1 (stereo not drawn) | – | > 100 µM | > 100 | > 100 | > 100 µM | > 100 | > 100 | > 100 | > 100 µM
CC[C@@]1(O)C(=O)OCc2c1cc1n(c2=O)Cc2c-1nc1ccccc1c2/C=N\NC(=O)C(N)=O | > 90.9 | > 100 µM | > 53.9 | 3.67 | 46.5 µM | 9.65 | 12 | 3.72 | > 100 µM
COc1ccc(-c2c(C(C)=O)c(-c3ccccc3)n(C3OC(COC(C)=O)C(OC(C)=O)C(OC(C)=O)C3OC(C)=O)c(=S)c2C#N)cc1O (stereo not drawn) | 72.2 | 42 µM and 80.5 µM | > 100 | > 100 | 35.9 µM and 47.7 µM | > 100 | > 100 | > 100 | 98.8 µM and > 100 µM
COc1cc(C(c2cc(OC)c(OC)c(OC)c2)N2C(=O)CCC2C(=O)O)cc(OC)c1OC (stereo not drawn) | > 100 | – | > 100 | > 100 | > 100 µM | > 100 | > 100 | – | > 100 µM
Nc1ccc(S(=O)(=O)c2ccc(N=[N+]([O-])c3ccc(S(=O)(=O)c4ccc(N)cc4)cc3)cc2)cc1 | > 65.6 | > 100 µM | > 100 | > 82.8 | > 74 µM | > 72.3 | > 100 | > 100 | > 62.6 µM
CCOC(=S)SC/C(=N\OC(C)(C)OC)c1ccccc1 | > 100 | 61.8 µM | 77.5 | > 100 | 59.1 µM | > 100 | 95.8 | 31.2 | > 100 µM
O=C(Nc1ccc(Cl)cc1)c1cc(S(=O)(=O)NC2=NC(c3ccccc3)c3cc(Cl)ccc3N2)c(SSc2cc(Cl)c(C(=O)Nc3ccc(Cl)cc3)cc2S(=O)(=O)NC2=NC(c3ccccc3)c3cc(Cl)ccc3N2)cc1Cl (stereo not drawn) | > 100 | > 100 µM | > 100 | > 100 | > 100 µM | > 100 | > 100 | > 100 | > 100 µM
CCOc1ccc(-n2c(=O)n3c(Nc4ccc(Cl)cc4)nc4c(c(=O)n(C)c(=O)n4C)n3c2=O)cc1 | 64.3 | 34.4 µM | 40.2 | 64.2 | 32.8 µM | > 100 | > 100 | 44.8 | > 100 µM
